Earlier results in US9981985B2, “Pharmaceutical formulations containing 3-(4-cinnamyl-l-piperazinyl) amino derivatives of 3-formylrifamycin SV and 3-formylrifamycin S and a process of their preparation” (Adipharm EAD, priority 2012, dated 2018).

Key:
[1] = from U.S. Pat. No. 5,095,108
[2] = in vivo
[3] = in vivo tests, in comparison to rifampicin; from U.S. Pat. No. 5,095,108
[4] = in vivo; remark: listed apart in the source

Row | Compound | acute toxicity [1] | serum half-life [2] | therapeutic effect [3] | pharmacokinetic properties [4] | resorption [4]
1 | CO[C@H]1/C=C/O[C@@]2(C)Oc3c(C)c(O)c4c(O)c(c(/C=N/N5CCN(C/C=C/c6ccccc6)CC5)c(O)c4c3C2=O)NC(=O)/C(C)=C\C=C\[C@H](C)[C@H](O)[C@@H](C)[C@@H](O)[C@@H](C)[C@H](OC(C)=O)[C@@H]1C [Ia, 3-(4-cinnamyl-1-piperazinyl)-iminomethyl rifamycin SV] | low | considerably longer | higher therapeutic effect in comparison to rifampicin | – | –
2 | sodium salt of 3-(4-cinnamyl-1-piperazinyl)-iminomethyl rifamycin SV [Compound Ib] | – | – | – | better | faster
